Common to all, as to type: cell-based
One test has as its system E. coli AG100. The test can be described thus: Broth microdilution MIC, E. coli AG100 (wild-type parent). To be noted: Escherichia coli; wild-type parent E. coli AG100, broth microdilution; read-out: MIC E. coli AG100. In short, it runs like this: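 Starting inoculum of 5×10^5 CFU/mL, from colonies grown 3-5 h in Mueller-Hinton broth with divalent cations, added to two-fold compound dilution series.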

The next test deals with E. coli 901C. The test can be described thus: microbe, parasite or virus in culture. To be noted: Escherichia coli; hyper-permeable E. coli 901C, broth microdilution; read-out: MIC E. coli 901C. Summed up: (§1)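 CLSI broth microdilution in cation-supplemented Mueller-Hinton broth; 2-fold compound dilutions inoculated at 5×10^5 CFU/mL from a 3-5 h log-phase culture. Plates incubated 16-20 hours at 37° C; MIC read visually as lowest concentration with no growth.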
In general terms: Dilution methods test growth across graded concentrations, often in twofold steps.

A further test relates to E. coli AG100A. Nature of the test: microbe, parasite or virus in culture. The note with it: Escherichia coli, read-out: MIC E. coli AG100A. Summed up: as §1
In a further test the test system is E. coli D22. Nature of the test: microbe, parasite or virus in culture. To be noted: Escherichia coli; hyper-permeable E. coli D22, broth microdilution; read-out: MIC E. coli D22. In short, it runs like this: as §1
In another test the test system is K. pneumoniae SI-117. The test can be described thus: microbe, parasite or virus in culture. To be noted: Klebsiella pneumoniae, SI117, read-out: MIC K. pneumoniae SI-117. In short, it runs like this: as §1
The subject of a further test is K. pneumoniae UMM. Nature of the test: microbe, parasite or virus in culture. To be noted: Klebsiella pneumoniae; K. pneumoniae UMM producing SHV-5 and KPC-2; read-out: MIC K. pneumoniae UMM. In short, it runs like this: as §1
Test [1] relates to P. aeruginosa (ΔmexAB-oprM). The test can be described thus: microbe, parasite or virus in culture. The note with it: Pseudomonas aeruginosa, read-out: MIC P. aeruginosa ΔmexAB-OprM. In short, it runs like this: as §1
The next test deals with P. aeruginosa ATCC 35151. The test can be described thus: microbe, parasite or virus in culture. The note with it: Pseudomonas aeruginosa, ATCC35151; hyper-permeable P. aeruginosa ATCC 35151; read-out: MIC P. aeruginosa ATCC 35151. In short, it runs like this:
as §1

A further test concerns P. aeruginosa PAO1. Nature of the test: Broth microdilution MIC, P. aeruginosa PAO1. The note with it: Pseudomonas aeruginosa; P. aeruginosa PAO1, broth microdilution; read-out: MIC P. aeruginosa PAO1. Summed up:
as §1

A further test deals with A. baumannii ATCC 19606. Nature of the test: Broth microdilution MIC, A. baumannii ATCC 19606. The note with it: Acinetobacter baumannii, ATCC19606; A. baumannii ATCC 19606, broth microdilution; read-out: MIC A. baumannii ATCC 19606. Summed up: as §1
Test [2] concerns N. gonorrhoeae ATCC 49226. Nature of the test: Liquid broth MIC, N. gonorrhoeae ATCC 49226. The note with it: Neisseria gonorrhoeae, ATCC49226; N. gonorrhoeae ATCC 49226, liquid broth; read-out: Minimum Inhibitory Concentration, N. gonorrhoeae ATCC 49226. In short, it runs like this:
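MIC taken by eye as the lowest well lacking growth after 40-42 h at 36° C under 5% CO2. Compounds were 2-fold serially diluted; the starting inoculum of 5×10^5 CFU/mL came from direct colony suspensions grown on Kellogg's-supplemented GC agar.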

These results are taken from US12173018B2, “Penicillin-binding protein inhibitors” (priority 2018, dated 2024).

≈ marks a conversion by molar mass, not a printed value.

As for `CCCN1CCN(C(=O)NC(C(=O)N[C@H]2Cc3ccc(F)c(C(=O)O)c3OB2O)c2ccc(O)c(O)c2Cl)C(=O)C1=O` (some centres unmarked) [Example 125], the MIC fell in the range of 2 to 4 µg/mL in the test with E. coli AG100; 0.5 to 1 µg/mL with E. coli 901C; 2 to 4 µg/mL with E. coli AG100A; 0.5 to 1 µg/mL with E. coli D22; 2 to 4 µg/mL with K. pneumoniae SI-117; 32 to 64 µg/mL in the test with K. pneumoniae UMM. Also, the MIC in [1] was less than 0.25 µg/mL; in the test on P. aeruginosa ATCC 35151, less than 0.25 µg/mL; in the test with P. aeruginosa PAO1 it was 0.5 to 1 µg/mL; in the test with A. baumannii ATCC 19606 it was less than 0.25 µg/mL; in test [2], 4 to 8 µg/mL (≈ 6.59 to 13.2 µM).

With `O=C(O)c1c(F)ccc2c1OB(O)[C@@H](NC(=O)C(NC(=O)N1CCN(CCF)C(=O)C1=O)c1ccc(O)c(O)c1Cl)C2` (some centres unmarked) [Example 131], the MIC was 8 to 16 µg/mL in the test on E. coli AG100; 0.5 to 1 µg/mL with E. coli 901C; 2 to 4 µg/mL in the test on E. coli AG100A; 2 to 4 µg/mL in the test with E. coli D22; 8 to 16 µg/mL in the test with K. pneumoniae SI-117; 8 to 16 µg/mL in the test on K. pneumoniae UMM. Moreover, the MIC in test [1] is less than 0.25 µg/mL; in the test on P. aeruginosa ATCC 35151, less than 0.25 µg/mL; in the test on P. aeruginosa PAO1 it was 0.5 to 1 µg/mL; in the test with A. baumannii ATCC 19606, 8 to 16 µg/mL; in test [2] it was 4 to 8 µg/mL (≈ 6.55 to 13.1 µM).

`CCN1CCN(C(=O)NC(C(=O)N[C@H]2Cc3ccc(F)c(C(=O)O)c3OB2O)c2cc(O)c(O)cc2F)C(=O)C1=O` (stereo partly drawn) [Example 136, (3R)-3-(2-(4-ethyl-2,3-dioxopiperazine-1-carboxamido)-2-(2-fluoro-4,5-dihydroxyphenyl)acetamido)-7-fluoro-2-hydroxy-3,4-dihydro-2H-benzo[e][1,2]oxaborinine-8-carboxylic acid]: the MIC is 2 to 4 µg/mL with E. coli AG100; 0.5 to 1 µg/mL in the test with E. coli 901C; 2 to 4 µg/mL in the test with E. coli AG100A; 2 to 4 µg/mL in the test on E. coli D22; greater than 128 µg/mL with K. pneumoniae SI-117; 8 to 16 µg/mL in the test on K. pneumoniae UMM. The MIC in test [1] fell in the range of 0.5 to 1 µg/mL; with P. aeruginosa ATCC 35151 it was 0.5 to 1 µg/mL; in the test on P. aeruginosa PAO1, 8 to 16 µg/mL; with A. baumannii ATCC 19606, 2 to 4 µg/mL; in [2], 1 to 2 µg/mL (≈ 1.74 to 3.47 µM).

With `CCN1CCN(C(=O)NC(C(=O)N[C@H]2Cc3ccc(F)c(C(=O)O)c3OB2O)c2ncc(O)cc2F)C(=O)C1=O` (stereo partly drawn) [Example 145, (3R)-3-(2-(4-ethyl-2,3-dioxopiperazine-1-carboxamido)-2-(3-fluoro-5-hydroxypyridin-2-yl)acetamido)-7-fluoro-2-hydroxy-3,4-dihydro-2H-benzo[e][1,2]oxaborinine-8-carboxylic acid], the MIC with E. coli AG100 is 8 to 16 µg/mL; in the test on E. coli 901C, 0.5 to 1 µg/mL; in the test on E. coli AG100A, 2 to 4 µg/mL; in the test with E. coli D22, 2 to 4 µg/mL; with K. pneumoniae SI-117, 32 to 64 µg/mL; in the test with K. pneumoniae UMM, 8 to 16 µg/mL. In addition, the MIC in [1] is 8 to 16 µg/mL; with P. aeruginosa ATCC 35151, 8 to 16 µg/mL; in the test on P. aeruginosa PAO1, greater than 128 µg/mL; in the test on A. baumannii ATCC 19606, greater than 128 µg/mL; in test [2] it was 0.25 to 0.5 µg/mL (≈ 0.445 to 0.891 µM).

Take `CCN1CCN(C(=O)NC(C(=O)N[C@H]2Cc3ccc(F)c(C(=O)O)c3OB2O)c2ccc(O)c(O)c2F)C(=O)C1=O` (stereo partly drawn) [Example 149, (3R)-3-(2-(4-ethyl-2,3-dioxopiperazine-1-carboxamido)-2-(2-fluoro-3,4-dihydroxyphenyl)acetamido)-7-fluoro-2-hydroxy-3,4-dihydro-2H-benzo[e][1,2]oxaborinine-8-carboxylic acid]: the MIC was in the range of 2 to 4 µg/mL in the test on E. coli AG100; 0.5 to 1 µg/mL with E. coli 901C; 0.5 to 1 µg/mL in the test with E. coli AG100A; 2 to 4 µg/mL with E. coli D22; 2 to 4 µg/mL in the test on K. pneumoniae SI-117; 2 to 4 µg/mL in the test on K. pneumoniae UMM. Besides, the MIC was less than 0.25 µg/mL in test [1]; less than 0.25 µg/mL in the test with P. aeruginosa ATCC 35151; 2 to 4 µg/mL with P. aeruginosa PAO1; 8 to 16 µg/mL in the test with A. baumannii ATCC 19606; 1 to 2 µg/mL (≈ 1.74 to 3.47 µM) in [2].

On to `CCN1CCN(C(=O)NC(C(=O)N[C@H]2Cc3cccc(C(=O)O)c3OB2O)c2ncc(O)cc2Cl)C(=O)C1=O` (stereo partly drawn) [Example 150, (3R)-3-(2-(4-ethyl-2,3-dioxopiperazine-1-carboxamido)-2-(3-chloro-5-hydroxypyridin-2-yl)acetamido)-2-hydroxy-3,4-dihydro-2H-benzo[e][1,2]oxaborinine-8-carboxylic acid], for which the MIC is 32 to 64 µg/mL with E. coli AG100; 0.5 to 1 µg/mL in the test on E. coli 901C; 2 to 4 µg/mL in the test on E. coli AG100A; 2 to 4 µg/mL in the test on E. coli D22; greater than 128 µg/mL with K. pneumoniae SI-117; 32 to 64 µg/mL in the test on K. pneumoniae UMM. Also, the MIC is 32 to 64 µg/mL in test [1]; 2 to 4 µg/mL in the test on P. aeruginosa ATCC 35151; greater than 128 µg/mL in the test on P. aeruginosa PAO1; greater than 128 µg/mL in the test with A. baumannii ATCC 19606; 4 to 8 µg/mL (≈ 7.15 to 14.3 µM) in test [2].

On to `CCN1CCN(C(=O)NC(C(=O)N[C@H]2Cc3ccc(F)c(C(=O)O)c3OB2O)c2ncc(O)cc2Cl)C(=O)C1=O` (stereo partly drawn) [Example 151, (3R)-3-(2-(3-chloro-5-hydroxypyridin-2-yl)-2-(4-ethyl-2,3-dioxopiperazine-1-carboxamido)acetamido)-7-fluoro-2-hydroxy-3,4-dihydro-2H-benzo[e][1,2]oxaborinine-8-carboxylic acid], for which the MIC in the test with E. coli AG100 is 32 to 64 µg/mL; with E. coli 901C, 0.5 to 1 µg/mL; in the test on E. coli AG100A it was 8 to 16 µg/mL; in the test on E. coli D22 it was 8 to 16 µg/mL; in the test with K. pneumoniae SI-117, 32 to 64 µg/mL; in the test with K. pneumoniae UMM, 32 to 64 µg/mL. The MIC in test [1] is 8 to 16 µg/mL; in the test on P. aeruginosa ATCC 35151, less than 0.25 µg/mL; in the test with P. aeruginosa PAO1 it was greater than 128 µg/mL; with A. baumannii ATCC 19606, greater than 128 µg/mL; in test [2] it was 1 to 2 µg/mL (≈ 1.73 to 3.46 µM).

Regarding `CCN1CCN(C(=O)N[C@@H](C(=O)N[C@H]2Cc3ccc(F)c(C(=O)O)c3OB2O)c2ccc(O)c(F)c2)C(=O)C1=O` [Example 161, (R)-3-((R)-2-(4-ethyl-2,3-dioxopiperazine-1-carboxamido)-2-(3-fluoro-4-hydroxyphenyl)acetamido)-7-fluoro-2-hydroxy-3,4-dihydro-2H-benzo[e][1,2]oxaborinine-8-carboxylic acid], the MIC in the test on E. coli AG100 is greater than 128 µg/mL; with E. coli 901C, 0.5 to 1 µg/mL; in the test with E. coli AG100A, 32 to 64 µg/mL; in the test on E. coli D22, 2 to 4 µg/mL; in the test on K. pneumoniae SI-117, greater than 128 µg/mL; in the test on K. pneumoniae UMM, 32 to 64 µg/mL. In addition, the MIC in test [1] was 8 to 16 µg/mL; with P. aeruginosa ATCC 35151, less than 0.25 µg/mL; in the test with P. aeruginosa PAO1 it was greater than 128 µg/mL; in the test on A. baumannii ATCC 19606, greater than 128 µg/mL; in [2] it was 1 to 2 µg/mL (≈ 1.78 to 3.57 µM).

Take `CCN1CCN(C(=O)N[C@@H](C(=O)N[C@H]2Cc3cccc(C(=O)O)c3OB2O)c2ncc(O)cc2F)C(=O)C1=O` [Example 177, (R)-3-((R)-2-(4-ethyl-2,3-dioxopiperazine-1-carboxamido)-2-(3-fluoro-5-hydroxypyridin-2-yl)acetamido)-2-hydroxy-3,4-dihydro-2H-benzo[e][1,2]oxaborinine-8-carboxylic acid]: the MIC in the test on E. coli AG100 was 8 to 16 µg/mL; in the test on E. coli 901C, less than 0.25 µg/mL; in the test with E. coli AG100A it was 0.5 to 1 µg/mL; with E. coli D22 it was 0.5 to 1 µg/mL; with K. pneumoniae SI-117 it was 32 to 64 µg/mL; in the test with K. pneumoniae UMM, 8 to 16 µg/mL. The MIC in [1] is 2 to 4 µg/mL; with P. aeruginosa ATCC 35151 it was 0.5 to 1 µg/mL; with P. aeruginosa PAO1 it was greater than 128 µg/mL; in the test on A. baumannii ATCC 19606, greater than 128 µg/mL; in test [2], 4 to 8 µg/mL (≈ 7.36 to 14.7 µM).

Regarding `CCN1CCN(C(=O)NC(C(=O)N[C@H]2Cc3ccc(F)c(C(=O)O)c3OB2O)c2ccc(S(N)(=O)=O)cc2)C(=O)C1=O` (stereo partly drawn) [Example 181, (3R)-3-(2-(4-ethyl-2,3-dioxopiperazine-1-carboxamido)-2-(4-sulfamoylphenyl)acetamido)-7-fluoro-2-hydroxy-3,4-dihydro-2H-benzo[e][1,2]oxaborinine-8-carboxylic acid], the MIC in the test with E. coli AG100 was greater than 128 µg/mL; with E. coli 901C, 0.5 to 1 µg/mL; in the test with E. coli AG100A it was 32 to 64 µg/mL; in the test with E. coli D22, 8 to 16 µg/mL; in the test with K. pneumoniae SI-117 it was greater than 128 µg/mL; with K. pneumoniae UMM it was 32 to 64 µg/mL. Besides, the MIC in [1] is 8 to 16 µg/mL; in the test on P. aeruginosa ATCC 35151, 0.5 to 1 µg/mL; in the test with P. aeruginosa PAO1 it was greater than 128 µg/mL; in the test with A. baumannii ATCC 19606 it was greater than 128 µg/mL; in test [2], 4 to 8 µg/mL (≈ 6.61 to 13.2 µM).
